Converted amounts (≈) assume the structure as drawn. Where two headings read alike, the source gives them in different places. Positions of bridges follow the written chain, without caps; N, C: chain ends. Non-standard residues stand in square brackets, D forms with d. Residues, ends and D or L forms follow the SMILES beside them. *: point of attachment. Decanoyl(3R-OH) = CCCCCCC[C@@H](O)CC(=O)*; 1Nal = N[C@@H](Cc1cccc2ccccc12)C(=O)O; Igl = N[C@H](C(=O)O)C1Cc2ccccc2C1; dDab = NCC[C@@H](N)C(=O)O; X8 = CC(C)CCCC(C)CC(=O)*; dDap = NC[C@@H](N)C(=O)O; Dab = NCC[C@H](N)C(=O)O
How the values were obtained:
[1] = test system: K. pneumoniae GN_106, PmxR; settings: GN 106, PmxR
Summary of the method: (§1)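 Mid-log cultures grown in Mueller Hinton broth at 37° C were tested by 2-fold broth microdilution at 5×10^5 CFU/mL final. Compounds were dissolved in water and tested over a final range of 32 to 0.015 μg/mL.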

[2] = test system: S. aureus ATCC 25923, MSSA; settings: ATCC 25923
Summary of the method: as §1

P. aeruginosa ATCC 27853 = settings: ATCC 27853
Summary of the method: as §1

[3] = test system: K. pneumoniae ATCC 700603, MDR; settings: ATCC 700603
Summary of the method: as §1

[4] = test system: K. pneumoniae GN_102 PmxR; settings: GN 102 PmxR
Summary of the method: as §1

A. baumannii ATCC 19606 = settings: ATCC 19606
Summary of the method: as §1

[5] = test system: P. aeruginosa GN_043, PmxR
Summary of the method: as §1

A. baumannii GN_093 PmxR = settings: GN 093 PmxR
Summary of the method: as §1

[6] = test system: K. pneumoniae ATCC BAA-2146, NDM-1 pos; settings: ATCC BAA-2146
Summary of the method: as §1

K. pneumoniae ATCC 13883 = settings: ATCC 13883
Summary of the method: as §1

E. coli ATCC 25922 = settings: ATCC 25922
Summary of the method: as §1

[7] = test system: P. aeruginosa GN_105, PmxR; settings: GN 105, PmxR
Summary of the method: as §1

in vitro [8] = settings: human
Summary of the method: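 HK2 cells were seeded at 2000 per well in DMEM/F12 with 10% FBS and left to attach for 24 h at 37 °C, 5% CO2. They were then exposed for 24 h to 3-fold peptide dilutions starting from 600 μM solutions in quadruplicate. LDH release was read at 450 nm, and CC50 was fitted from dose-response curves.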

Neisseria gonorrhoeae = assay: MIC determination, Neisseria gonorrhoeae; format: cell-based; settings: for MIC N. gonorrhoeae FA19 ATCC BAA-1838: strain FA19 ATCC BAA-1838
Procedure: Bacteria were either obtained from American Type Culture Collection (ATCC; Manassas, Va., USA) or independent academic clinical isolate collections, as listed in Table 18 below. Bacteria were cultured in Nutrient broth (NB; Bacto Laboratories, catalogue No. 234000) or Mueller Hinton broth (MHB; Bacto Laboratories, catalogue No. 211443) at 37° C. overnight with shaking (˜180 RPM). A sample of each culture was then diluted 50-fold in fresh MHB and incubated at 37° C. for 2-3 h with shaking (˜180 RPM). Compound stock solutions were prepared as 0.64 mg/mL or 2.56 mg/mL in water. The compounds, at twice the final desired concentration, were serially diluted 2-fold across the wells of 96-well plates (Polystyrene, Corning, catalogue No. 3370). Mid-log phase bacterial cultures (after 2-3 h incubation) were diluted to a final concentration of 1×10^6 colony forming units (CFU)/mL, and 50 μL was added to each well giving a final cell density of 5×10^5 and a compound concentration range of 32 μg/mL to 0.015 μg/mL (128-0.06 μg/mL against P. aeruginosa PA9704).

in vitro [9] = settings: human; remark: listed apart in the source
Summary of the method: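 Cells were seeded at 4000 per well and allowed to attach for 24 h at 37 °C, 5% CO2, then exposed to compounds for 24 h. Resazurin (5 μM) was added for 2 h at 37 °C and fluorescence read at 560/590 nm. CC50 was derived by curve fitting of dose-dependent growth inhibition.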

Row | Structure (SMILES) | MIC K. pneumoniae GN_106, PmxR [1] [µg/mL] | MIC S. aureus ATCC 25923, MSSA [2] [µg/mL] | MIC P. aeruginosa ATCC 27853 (P. aeruginosa ATCC 27853) [µg/mL] | MIC K. pneumoniae ATCC 700603, MDR [3] [µg/mL] | MIC K. pneumoniae GN_102 PmxR [4] [µg/mL] | MIC A. baumannii ATCC 19606 (A. baumannii ATCC 19606) [µg/mL] | MIC P. aeruginosa GN_043, PmxR ([5]; P. aeruginosa GN_043, PmxR) [µg/mL] | MIC A. baumannii GN_093 PmxR (A. baumannii GN_093 PmxR) [µg/mL] | MIC K. pneumoniae ATCC BAA-2146, NDM-1 pos [6] [µg/mL] | MIC K. pneumoniae ATCC 13883 (K. pneumoniae ATCC 13883) [µg/mL] | MIC E. coli ATCC 25922 (E. coli ATCC 25922) [µg/mL] | MIC P. aeruginosa GN_105, PmxR [7] [µg/mL] | CC50 at 24 h (in vitro [8]) [µM] | MIC P. aeruginosa GN_043, PmxR ([5]; polymyxin-resistant) [µg/mL] | MIC N. gonorrhoeae FA19 ATCC BAA-1838 (Neisseria gonorrhoeae) [µg/mL] | CC50 at 24 h (in vitro [9]) [µM] | MIC N. gonorrhoeae F89 (Neisseria gonorrhoeae; strain F89) [µg/mL] | MIC N. gonorrhoeae FA1090 A25 ATCC 700825 (Neisseria gonorrhoeae; strain FA1090 A25 ATCC 700825) [µg/mL] | MIC N. gonorrhoeae H041 (Neisseria gonorrhoeae; strain H041) [µg/mL]
1 | CC(C)CCCC(C)CC(=O)N[C@H](CCN)C(=O)N[C@H]1CCNC(=O)[C@H](CC(C)C)NC(=O)[C@H](CCN)NC(=O)[C@H](CCN)NC(=O)[C@H](Cc2ccccc2)NC(=O)[C@@H](CC(C)C)NC(=O)[C@H](CCN)NC1=O (stereo partly drawn) [compound 6515, 3,7-dimethyloctanoic acid-D-Dab-cyc[L-Dab-L-Dab-D-Leu-L-Phe-L-Dab-L-Dab-L-Leu]] (X8-[dDab][Dab][Dab][dL]F[Dab][Dab]L; lactam 2-C) | 32 (≈ 31.1 µM) | 32 (≈ 31.1 µM) | 2 (≈ 1.94 µM) | 4 (≈ 3.89 µM) | 16 (≈ 15.6 µM) | >32 | 2 (≈ 1.94 µM) | 16 (≈ 15.6 µM) | 8 (≈ 7.78 µM) | 8 (≈ 7.78 µM) | 2 (≈ 1.94 µM) | 2 (≈ 1.94 µM) | 80 | – | – | – | – | – | –
2 | CCCCCCC[C@@H](O)CC(=O)N[C@H](CCN)C(=O)N[C@H]1CCNC(=O)[C@H]([C@@H](C)O)NC(=O)[C@H](CCN)NC(=O)[C@H](CCNC(=O)[C@@H](N)CCCNC(=N)N)NC(=O)[C@H](CC(C)C)NC(=O)[C@@H](Cc2ccccc2)NC(=O)[C@H](CCN)NC1=O [compound 6656, 3(R)OH-nC9CO-D-Dab-cyc[L-Dab-L-Dab-D-Phe-L-Leu-L-Dab(L-Arg)-L-Dab-L-Thr]] ({Decanoyl(3R-OH)}-[dDab][Dab][Dab][dF]L[Dab](Arg)[Dab]T; lactam 2-C) | >32 | >32 | 2 (≈ 1.68 µM) | 4 (≈ 3.37 µM) | >32 | 16 (≈ 13.5 µM) | 8 (≈ 6.73 µM) | >32 | >32 | >32 | 2 (≈ 1.68 µM) | 16 (≈ 13.5 µM) | > 300 | – | – | – | – | – | –
3 | CCCCCCC[C@@H](O)CC(=O)N[C@H](CCN)C(=O)N[C@H]1CCNC(=O)[C@H]([C@@H](C)O)NC(=O)[C@H](CCN)NC(=O)[C@H](CCN)NC(=O)[C@H](CC(C)C)NC(=O)[C@@H](Cc2ccccc2)NC(=O)[C@H](CCNC(=O)[C@@H](N)CCCNC(=N)N)NC1=O [compound 6657, 3(R)OH-nC9CO-D-Dab-cyc[L-Dab-L-Dab(L-Arg)-D-Phe-L-Leu-L-Dab-L-Dab-L-Thr]] ({Decanoyl(3R-OH)}-[dDab][Dab][Dab](Arg)[dF]L[Dab][Dab]T; lactam 2-C) | >32 | >32 | 16 (≈ 13.5 µM) | >32 | >32 | >32 | >32 | >32 | >32 | >32 | >32 | >32 | > 300 | – | – | – | – | – | –
4 | CCCCCCC[C@@H](O)CC(=O)N[C@H](CCN)C(=O)N[C@H]1CCNC(=O)[C@H](Cc2c[nH]c3ccccc23)NC(=O)[C@H](CCN)NC(=O)[C@H](CCN)NC(=O)[C@H](C2Cc3ccccc3C2)NC(=O)[C@@H](Cc2ccccc2)NC(=O)[C@H](CCN)NC1=O [compound 8103, 3(R)OH-nC9CO-D-Dab-cyc[L-Dab-L-Dab-L-Dab-D-Phe-L-indanylgly-L-Dab-L-Dab-L-Trp]] ({Decanoyl(3R-OH)}-[dDab][Dab][Dab][dF][Igl][Dab][Dab]W; lactam 2-C) | 4 (≈ 3.4 µM) | 2 (≈ 1.7 µM) | 4 (≈ 3.4 µM) | 2 (≈ 1.7 µM) | 4 (≈ 3.4 µM) | 4 (≈ 3.4 µM) | – | 4 (≈ 3.4 µM) | 4 (≈ 3.4 µM) | 4 (≈ 3.4 µM) | 2 (≈ 1.7 µM) | 2 (≈ 1.7 µM) | – | 2 (≈ 1.7 µM) | 0.2 (≈ 0.17 µM) | – | – | – | –
5 | CCCCCCC[C@@H](O)CC(=O)N[C@H](CN)C(=O)N[C@H]1CCNC(=O)[C@H](Cc2c[nH]c3ccccc23)NC(=O)[C@H](CCN)NC(=O)[C@H](CCN)NC(=O)[C@H](CC(C)C)NC(=O)[C@@H](Cc2ccccc2)NC(=O)[C@H](CCN)NC1=O [compound 8886, 3(R)OH-nC9CO-D-Dap-cyc[L-Dab-L-Dab-D-Phe-L-Leu-L-Dab-L-Dab-L-Trp]] ({Decanoyl(3R-OH)}-[dDap][Dab][Dab][dF]L[Dab][Dab]W; lactam 2-C) | 4 (≈ 3.63 µM) | 4 (≈ 3.63 µM) | 2 (≈ 1.81 µM) | 4 (≈ 3.63 µM) | 4 (≈ 3.63 µM) | 8 (≈ 7.25 µM) | – | 8 (≈ 7.25 µM) | 4 (≈ 3.63 µM) | 4 (≈ 3.63 µM) | 2 (≈ 1.81 µM) | 1 (≈ 0.906 µM) | – | 2 (≈ 1.81 µM) | 0.39 (≈ 0.353 µM) | 95 | 1.04 (≈ 0.943 µM) | 0.91 (≈ 0.825 µM) | 1.04 (≈ 0.943 µM)
6 | CCCCCCC[C@@H](O)CC(=O)N[C@H](CCN)C(=O)N[C@H]1CCNC(=O)[C@H](Cc2cccc3ccccc23)NC(=O)[C@H](CCN)NC(=O)[C@H](CCN)NC(=O)[C@H](CC(C)C)NC(=O)[C@@H](Cc2ccccc2)NC(=O)[C@H](CCN)NC1=O [compound 8909, 3(R)OH-nC9CO-D-Dab-cyc[L-Dab-L-Dab-D-Phe-L-Leu-L-Dab-L-Dab-L-Ala(1Naphthyl)]] ({Decanoyl(3R-OH)}-[dDab][Dab][Dab][dF]L[Dab][Dab][1Nal]; lactam 2-C) | 4 (≈ 3.54 µM) | 2 (≈ 1.77 µM) | 2 (≈ 1.77 µM) | 2 (≈ 1.77 µM) | 4 (≈ 3.54 µM) | 4 (≈ 3.54 µM) | – | 4 (≈ 3.54 µM) | 4 (≈ 3.54 µM) | 2 (≈ 1.77 µM) | 2 (≈ 1.77 µM) | 2 (≈ 1.77 µM) | – | 4 (≈ 3.54 µM) | 0.78 (≈ 0.691 µM) | 26 | – | – | –
7 | CCCCCCC[C@@H](O)CC(=O)N[C@H](CCN)C(=O)N[C@H]1CCNC(=O)[C@H](C2Cc3ccccc3C2)NC(=O)[C@H](CCN)NC(=O)[C@H](CCN)NC(=O)[C@H](CC(C)C)NC(=O)[C@@H](Cc2ccccc2)NC(=O)[C@H](CCN)NC1=O [compound 8912, 3(R)OH-nC9CO-D-Dab-cyc[L-Dab-L-Dab-D-Phe-L-Leu-L-Dab-L-Dab-L-indanylgly]] ({Decanoyl(3R-OH)}-[dDab][Dab][Dab][dF]L[Dab][Dab][Igl]; lactam 2-C) | 2 (≈ 1.81 µM) | 2 (≈ 1.81 µM) | 2 (≈ 1.81 µM) | 4 (≈ 3.62 µM) | 2 (≈ 1.81 µM) | 4 (≈ 3.62 µM) | – | 4 (≈ 3.62 µM) | 4 (≈ 3.62 µM) | 2 (≈ 1.81 µM) | 2 (≈ 1.81 µM) | 2 (≈ 1.81 µM) | – | 2 (≈ 1.81 µM) | 0.78 (≈ 0.706 µM) | 28 | – | – | –

Source: patent publication US11279733B2, “Peptide antibiotics” (priority 2017, dated 2022)
